Where “and” joins values, the source holds several entries; their conditions need not be identical. Identical values can stand only once. Like-named read-outs stand apart in the source and are kept apart here. Blank lines part the entries; values can stand above or below the molecule they belong to.
Assays:
[1] = Cytotoxicity assay (LDH-Glo), HeLa; assay type: cell-based; conditions: human, HeLa cells, supplementary CSV, read-out: HeLa Cell toxicity IC50
Method: (§1) To further characterize the potency of the phenylproline derivatives on cancer cells, their effect on proliferation has been measured on HeLa and A549 cell lines, which are known to express S100A4.[44],[45] A cell proliferation assay was performed by cultivating cells for 48 h in complete media with various concentrations of inhibitors, up to 30 μM. At the end of the treatment, luminescence was measured after the addition of the CellTiter-Glo reagent (Figure 7A).
(§2) The day before, cells were seeded in a white, cell-culture treated 384-well plates in complete high-glucose DMEM to reach a confluency of 25% on the day of the experiment. The next day, the medium was replaced by complete, high-glucose, phenol-red-free medium, and cells were incubated for 48 h in the presence of an inhibitor or DMSO as a control. Aliquots of the supernatant were harvested, diluted 100 times in 200 mM Tris-HCl, pH 7.3, 10% glycerol, and 1% BSA buffer, and used for cyctotoxicity measurement by using the LDH-Glo cytotoxicity assay kit (Promega). In parallel, the CellTiter-Glo (Promega) reagent was added to the cells to measure cell proliferation. Both experiments were done according to the manufacturer’s recommendations, and the luminescence was quantified using the FSX plate reader (Pherastar).

S100A4-NMII [2] = target: T1, S100A4-NMII (Homo sapiens, UniProt P26447); assay: cell-based
T1 sequence (P26447 whole entry): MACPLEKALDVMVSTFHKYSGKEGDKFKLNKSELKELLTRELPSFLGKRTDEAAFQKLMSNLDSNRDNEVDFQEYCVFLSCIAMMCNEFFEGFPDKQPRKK
From the text: First, we performed IC50 measurements of protein–protein interaction in the presence of inhibitors using NanoBret technology. Briefly, S100A4-HaloTag and NMII-NanoLuc were expressed in 293HEK cells to allow signal detection from donor (NanoLuc) and acceptor (HaLoTag) proximity upon S100A4-NMII interaction.
Assay development was done according to the NanoBRet-NanoGlo detection system manufacturer’s recommendations (Promega) by testing each combination of N- and C-termini of HaloTag and NanoLuc fusion constructs. 293HEK cells were seeded on 6-well plates in complete DMEM media and transfected 6 h later with S100A4-NanoLuc (1.8 μg) and NMII-HaloTag (0.2 μg) constructs using the JetPrime transfection reagent (Polyplus Transfection, Strasbourg, France). After an overnight incubation, cells were resuspended in phenol-red-free, 4% serum media in the presence of the HaloTag NanoBret 618 ligand or DMSO for control. […] NanoBret NanoGlo substrates were added to cells prior to reading the plate with the Pherastar FSX plate reader. The raw Nanobret ratio was calculated by dividing the acceptor emission value (618 nm) by the donor emission value (460 nm) for each sample. The mean NanoBret data were calculated by subtracting the background ratio (no acceptor control) from the sample ratio.

HeLa = assay: Cell proliferation assay (CellTiter-Glo), HeLa; assay type: cell-based; conditions: Homo sapiens, 48 h, supplementary CSV
Method: as §1, §2

[3] = Cytotoxicity assay (LDH-Glo), A549; assay type: cell-based; conditions: human, A549 cells, supplementary CSV, read-out: A549 Cell toxicity IC50
Method: as §1, §2

[4] = GSH reactivity assay (LCMS); assay type: physicochemical; conditions: 1 mM glutathione (GSH) in HEPES buffer, pH 7.5; read-out: GSH t1/2 (converted)
Method: GSH is the most abundant low molecular weight thiol compound in the cell. It protects cells from oxidative damage and the toxicity of xenobiotic electrophiles and maintains redox homeostasis.[43] We speculated that a robust and specific reaction of inhibitors would not be drastically affected by competitive cysteines in the reaction.
50 μM of each compound was incubated at room temperature with 1 mM GSH in 50 mM HEPES, 20 mM NaCl, pH 7.5, and 1.3% DMSO. At each time point, an aliquot was taken and analyzed by LCMS. The percentage of the compound remaining was determined by comparing the area of the peaks of the compound and the GSH adduct. The natural logarithm of the results was fitted to a linear regression, and t1/2 was calculated as t1/2 = ln(2)/–slope.

A549 = assay: Cell proliferation assay (CellTiter-Glo), A549; assay type: cell-based; conditions: Homo sapiens, 48 h, supplementary CSV
Method: as §1, §2

S100A4 [5] = target: T2, S100A4 (Homo sapiens, UniProt P26447); assay: Protein labeling detection by mass spectrometry, S100A4; conditions: 10 μM S100A4, 100 μM inhibitor, 1 h
T2 sequence (P26447 whole entry): as above

S100A11-AnII = target: T3, S100A11-AnII (Homo sapiens, UniProt P31949); assay: HTRF (TR-FRET) peptide displacement S100A11-AnII; assay type: binding; conditions: supplementary CSV
T3 construct: made in house; host or cells: E. coli Rosetta (DE3); peptide from LifeTein
T3 sequence (P31949 1-105): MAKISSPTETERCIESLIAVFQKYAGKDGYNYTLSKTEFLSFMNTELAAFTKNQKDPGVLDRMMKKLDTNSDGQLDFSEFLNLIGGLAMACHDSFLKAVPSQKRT
Method: Table S4: Compound IDs and SMILES … S30 […]
(§3) Peptide displacement assay development
(§4) addition of an inhibitor.
(§5) Assay was done in 384-well
(§6) After 2 hours of incubation at
(§7) concentration range to avoid the saturation of the signal.

S100A4-NMII [6] = target: T1, S100A4-NMII; assay: HTRF (TR-FRET) peptide displacement S100A4-NMII (MPN peptide); assay type: binding; set-up: made in house; host or cells: E. coli Rosetta (DE3); peptide from LifeTein; conditions: supplementary CSV
Method: as §3, §4, §5, §6, §7

[7] = Metabolic stability in mouse liver microsomes (MLM); assay type: in vitro ADME; conditions: for MLM, Cli / half-life: mouse liver microsomes; for half-life: read-out: MLM, T1/2
From the text: (§8) Selected compounds were screened for aqueous solubility in PBS (pH 7.4), metabolic stability in mouse liver microsomes (MLM) as a measure of clearance, Log D, and permeability. ADME studies reported in this work were independently performed by WuXi AppTec (Shanghai, China). Raw data are provided upon request.

[8] = Aqueous solubility in PBS (pH 7.4); assay type: physicochemical; conditions: aqueous buffer; PBS pH 7.4; read-out: aq. solubility
From the text: as §8

HeLa cells = assay: Cell migration (wound healing) assay, HeLa; assay type: cell-based; conditions: 8 μM, 36 h
Method: We next investigated whether phenylproline derivatives would inhibit S100A4 activity by affecting cell migration. HeLa and A549 cells were challenged for a cell migration assay in the presence of phenylproline derivatives. A monolayer of cells was scratched and treated with various concentrations of inhibitors for 36 h. Cell migration was monitored automatically using the Incucyte live-cell imager by imaging cells every 2 h.
The day before the experiment, cells were seeded in a black, clear-bottom, collagen-coated 96-well plate in complete high-glucose DMEM to reach nearly full confluency the next day. On the day of the experiment, a wound in the cell layer was made, and the media were replaced with media containing phenylproline derivatives. Cells were incubated for 36 h in an Incucyte cell-imager (Sartorius, Germany), allowing for automated cell imaging every 2 h. The analysis was done by measuring the wound area using ImageJ and plugging the wound healing tool.

[9] = test system: P-glycoprotein (P-gp, MDR1); assay: Cell permeability MDR1-MDCK II; assay type: in vitro ADME; conditions: dog
From the text: as §8

Log D = assay type: physicochemical
From the text: as §8

P-gp (MDR1) = assay: Cell permeability MDR1-MDCK II; assay type: in vitro ADME; conditions: dog
From the text: as §8

S100A4 [10] = target: T2, S100A4; assay: biochemical
Method: As a starting point to discover new S100 inhibitors, we used a peptide-displacement assay based on the Amplified Luminescent Proximity Homogeneous Assay (AlphaScreen) of a His-tagged protein interacting with a biotinylated peptide and its ability to be disrupted by small molecule inhibitors of protein interactions.[31] We took advantage of the ability of several S100 proteins to interact with the TRTK-12 peptide.[32] The optimal experimental conditions were determined by performing a protein versus peptide titration for each protein. Serial dilutions of purified 6His-S100 protein (S100A2, S100A4, S100A5, or S100B) were mixed with a serial dilution of a biotinylated TRTK-12 peptide in the presence of 1 mM calcium to allow conformational changes and activation of S100 proteins. […]
A 4 989 compound library was screened using an Alpha-Screen assay. […] Twelve wells per plate were used as solvent controls and as a reference for inhibition calculation, which was calculated as inhibition (%) = (1 – (Fsample– Fbackground)/(Fsolvent – Fbackground)) × 100
(§9) The best hits from the single-shot experiment were tested for IC50 determination using the HTRF assay as described above. […] The percentage of inhibition was calculated as described above and was used for IC50 determination. […]

S100B = S100B (Homo sapiens, UniProt P04271); conditions: read-out: IC50 S100B - TRTK peptide displacement; AlphaScreen, duplicate, 50 μM top FAC
S100B, sequence (P04271 whole entry): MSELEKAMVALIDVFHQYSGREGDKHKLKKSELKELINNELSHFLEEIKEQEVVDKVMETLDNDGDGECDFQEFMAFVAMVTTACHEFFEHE
Method: (§10) As a starting point to discover new S100 inhibitors, we used a peptide-displacement assay based on the Amplified Luminescent Proximity Homogeneous Assay (AlphaScreen) of a His-tagged protein interacting with a biotinylated peptide and its ability to be disrupted by small molecule inhibitors of protein interactions.[31] We took advantage of the ability of several S100 proteins to interact with the TRTK-12 peptide.[32] The optimal experimental conditions were determined by performing a protein versus peptide titration for each protein. Serial dilutions of purified 6His-S100 protein (S100A2, S100A4, S100A5, or S100B) were mixed with a serial dilution of a biotinylated TRTK-12 peptide in the presence of 1 mM calcium to allow conformational changes and activation of S100 proteins. The protein–peptide ratio that allows the highest signal to background, without signal saturation, was chosen as the assay condition for each protein to perform the first screening campaign (Figure S1 and Table S1). An internal diversity library of 4 989 small molecules was screened at a single-dose of 50 μM in duplicate in a 384-well plate format. The four S100 protein screening experiments were performed in parallel. […] We also selected the hits based on their ability to show specificity for one protein; compounds showing 50% or more inhibition for other S100 proteins were not selected (Supporting Information).
(§11) A 4 989 compound library was screened using an Alpha-Screen assay. 6His-Tag-S100A2, -S100A4, -S100A5, and -S100B were used in combination with TRTK-Biotin peptide under conditions described previously. […] Twelve wells per plate were used as solvent controls and as a reference for inhibition calculation, which was calculated as inhibition (%) = (1 – (Fsample– Fbackground)/(Fsolvent – Fbackground)) × 100
as §9

S100A2 = S100A2 (Homo sapiens, UniProt P29034); conditions: read-out: IC50 S100A2 - TRTK peptide displacement; AlphaScreen, duplicate, 50 μM top FAC
S100A2, sequence (P29034 whole entry): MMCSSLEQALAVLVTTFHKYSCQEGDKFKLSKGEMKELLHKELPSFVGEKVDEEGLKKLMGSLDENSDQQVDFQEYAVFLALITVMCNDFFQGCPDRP
Method: as §10, §11, §9

S100A5 = S100A5 (Homo sapiens, UniProt P33763); conditions: read-out: IC50 S100A5 - TRTK peptide displacement; AlphaScreen, duplicate, 50 μM top FAC
S100A5, sequence (P33763 whole entry): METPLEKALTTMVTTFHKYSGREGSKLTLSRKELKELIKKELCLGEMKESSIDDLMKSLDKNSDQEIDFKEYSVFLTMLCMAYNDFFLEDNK
Method: as §10, §11, §9

[11] = read-out: S100A4 IC50 HTRF assay
[12] = MDCK-MDR1, A to B, read-out: MDR1-MDCK II, AB Papp
[13] = MDCK-MDR1, B to A, read-out: MDR1-MDCK II, BA Papp

IC50 (S100A11-AnII): > 30 µM
IC50 (S100A4-NMII [6]; [11]): 3.25 µM
SMILES: O=C1Nc2ccccc2C1NC(=O)[C@H]1C[C@H](c2ccccc2)CN1C(=O)CCl (stereo partly drawn) [5e]

IC50 (S100A11-AnII): > 30 µM
IC50 (S100A4-NMII [6]; [11]): 4.75 µM
SMILES: COc1cccc(N2CC(NC(=O)[C@H]3C[C@H](c4ccccc4)CN3C(=O)CCl)CC2=O)c1 (stereo partly drawn) [5f]

IC50 (S100A11-AnII): > 30 µM
IC50 (S100A4-NMII [6]; [11]): 1.24 µM
SMILES: N#CCc1ccc(NC(=O)[C@H]2C[C@H](c3ccccc3)CN2C(=O)CCl)cc1 [5g]

IC50 (S100A11-AnII): 33.8 µM
IC50 (S100A4-NMII [6]; [11]): 7.4 µM
SMILES: O=C(Nc1cccc(Cl)c1)[C@H]1C[C@H](c2ccccc2)CN1C(=O)CCl [compound 5]

Further lines, the molecule ahead of its results:

SMILES: O=C(Nc1cccc(Cl)c1)[C@H]1C[C@H](c2ccccc2)CN1C(=O)CCl [5a]
IC50 at 48 h [1]: 55.8 µM
IC50 (S100A4-NMII [2]): 20 µM
IC50 (HeLa): 3.1 µM
IC50 at 48 h [3]: 27.1 µM
half-life at 50 μM [4]: 9.4 h
IC50 (A549): 25 µM
S100A4 covalent modification pattern (in words) (S100A4 [5]): single shifts
IC50 (S100A11-AnII): > 30 µM
IC50 (S100A4-NMII [6]; [11]): 4.22 µM
MLM, Cli [7]: 332 μL/min/mg protein
half-life [7]: 4 min
solubility [8]: 23.9 µg/mL and 63.4 µM
wound healing (cell migration) (HeLa cells): drastically reduced wound healing
Papp [9, 12]: 0.8 ×10⁻⁶ cm/s
Papp [9, 13]: < 26.4 ×10⁻⁶ cm/s
logD (Log D): 3.95

SMILES: CC(C)C[C@@H](NC(=O)[C@H]1C[C@H](c2ccccc2)CN1C(=O)CCl)c1nc2ccccc2[nH]1 [5c]
IC50 at 48 h [1]: 29.8 µM
IC50 (S100A4-NMII [2]): 11.1 µM
IC50 (HeLa): 4.5 µM
IC50 at 48 h [3]: 37.7 µM
half-life at 50 μM [4]: 6.8 h
IC50 (A549): 11.9 µM
S100A4 covalent modification pattern (in words) (S100A4 [5]): single shifts
IC50 (S100A11-AnII): 36.8 µM
IC50 (S100A4-NMII [6]; S100A4 + 1mM GSH IC50 HTRF assay, 1 mM GSH): 1.57 µM
IC50 (S100A4-NMII [6]; [11]): 0.77 µM
microsomal stability MLM (in words) [7]: moderate MLM stability
MLM, Cli [7]: 209 μL/min/mg protein
half-life [7]: 7 min
solubility [8]: 1.69 µg/mL and 3.73 µM
Papp (P-gp (MDR1); [12]): 12.6 ×10⁻⁶ cm/s
Papp (P-gp (MDR1); [13]): 38.8 ×10⁻⁶ cm/s
logD (Log D): 4.64

SMILES: CN1CCCC(NC(=O)[C@H]2C[C@H](c3ccccc3)CN2C(=O)CCl)C1=O (stereo partly drawn) [5d]
IC50 (S100A11-AnII): > 30 µM
IC50 (S100A4-NMII [6]; [11]): 1.05 µM

SMILES: Cc1ccc(S(=O)(=O)/C=C/C#N)cc1 [compound 1]
IC50 (S100A4 [10]): < 1 µM
IC50 (S100A4 [10]; read-out: IC50 S100A4 - TRTK peptide displacement, AlphaScreen, duplicate, 50 μM top FAC, 1 mM calcium): 1.23 µM
IC50 (S100B): > 30 µM
IC50 (S100A2): > 30 µM
IC50 (S100A5): > 30 µM
